From ChEMBL document CHEMBL1156829 (Proc Natl Acad Sci U S A, 2008)

How the values were obtained:
[1] = test system: Plasmodium falciparum; assay: NOVARTIS: Inhibition of Plasmodium falciparum 3D7 (drug-susceptible) proliferation in erythrocyte-based infection assay; type: functional, organism-based; settings: Plasmodium falciparum, 3D7
[2] = test system: Plasmodium falciparum; assay: NOVARTIS: Inhibition of Plasmodium falciparum W2 (drug-resistant) proliferation in erythrocyte-based infection assay; type: functional, organism-based; settings: Plasmodium falciparum, W2; read-out: EC50
[3] = NOVARTIS: Cytotoxicity against human hepatocellular carcinoma cell line (Huh7); type: toxicity, cell-based, Huh-7; settings: Huh7 cells (hepatocellular carcinoma cell line)

Structure (SMILES) | EC50 [1] | EC50 [2] | CC50 [3]
Cn1c(NN=Cc2ccccc2)cc(=O)n(C)c1=O | > 1250 nM | 325 nM | > 10000 nM
O=C(Cc1cccs1)N1CCN(c2ccccn2)CC1 | 3950 nM | 1930 nM | > 100000 nM
Cc1nc2cc(-c3ccc(I)cc3)nn2c(O)c1C | 4200 nM | 1540 nM | > 100000 nM
CCOC(=O)N1CCC(n2c(SCC(=O)N3CCCCCC3)nc3ccccc3c2=O)CC1 | 7340 nM | 1090 nM | > 100000 nM
COc1ccccc1-n1c(/C=C/c2cc(Br)ccc2O)nc2ccccc2c1=O | > 1250 nM | > 1050 nM | > 10000 nM
CCOC(=O)C1CCN(C(=O)c2cc(C(C)(C)C)nn2Cc2ccc(Cl)cc2Cl)CC1 | 340 nM | 576 nM | > 100000 nM
CCN1CCN(c2cc(C)c3cc(NC(=O)c4ccc(OC)c([N+](=O)[O-])c4)ccc3n2)CC1 | 273 nM | 344 nM | 15400 nM
Cc1ccc(Cl)cc1N1CCN(S(=O)(=O)c2ccc3c(c2)oc(=O)n3C)CC1 | > 12500 nM | 882 nM | > 100000 nM
COc1ccc(C(=O)C(C)[n+]2ccccc2-c2ccccn2)cc1 (centres undefined) | 602 nM | > 751 nM | > 12100 nM
CN1CC=C(/C=C/c2c[nH]c3ccccc23)CC1 | 483 nM | 100 nM | > 10000 nM
COc1ccc(-c2c[n+](CC(=O)c3cccc(OC)c3)c3n2CCC3)cc1 | 954 nM | 530 nM | > 100000 nM
COCC(=O)Oc1ccccc1-c1nc2cc(C)ccn2c1NC(C)(C)CC(C)(C)C | 799 nM | < 9.15 nM | > 6200 nM
COC1=CC(=O)c2c(ccc3cc(O)ccc23)C1=O | 767 nM | 215 nM | > 10000 nM
COc1cc(-c2nc(-c3ccccc3)c(-c3ccc(O)cc3)[nH]2)cc(OC)c1O | 879 nM | > 1750 nM | > 10000 nM
Cc1cccc2cc(CNC34CC5CC(CC(C5)C3)C4)c(N3CCC(N4CCC(O)CC4)CC3)nc12 | 793 nM | 163 nM | 4900 nM
CCCCCCN(C(=O)Nc1cccc(C#N)c1)C(CC)c1nc2ccccc2c(=O)n1CCC(=O)OC (centres undefined) | 979 nM | 1070 nM | > 10000 nM
O=C(COc1ccccc1)Nc1nccs1 | > 1250 nM | 1260 nM | > 10000 nM
CCCCCCC(=O)Oc1ccccc1-c1nc2ccccn2c1NC(C)(C)CC(C)(C)C | 1060 nM | 78.3 nM | > 10000 nM
COc1ccc(C=NNc2nc3ccccc3[nH]2)cc1OC | 243 nM | 128 nM | 36500 nM
Oc1cccc2ccc[n+](CC(O)Cn3c4ccccc4c4ccccc43)c12 (centres undefined) | 199 nM | 651 nM | 49200 nM
CCC(C)(C)C1CCc2sc3ncnc(NN=Cc4c(Cl)cccc4Cl)c3c2C1 (centres undefined) | 733 nM | 904 nM | > 100000 nM
C=CCNC(=O)CSc1ccc(C(=O)Nc2ccc(Cl)cc2F)cc1[N+](=O)[O-] | > 1170 nM | > 1630 nM | > 10000 nM
COc1ccc([N+](=O)[O-])cc1C=NNc1nc(Nc2ccc([N+](=O)[O-])cc2)nc(N2CCN(C)CC2)n1 | 859 nM | 388 nM | 30700 nM
CCn1c(=NC(=O)c2cc(=O)c3ccccc3o2)sc2c(OC)ccc(OC)c21 | 1500 nM | 55.6 nM | > 10000 nM
CCOC(=O)C1=C(CC)NC2=C(C(=O)CCC2)C1c1ccc(OC)c(Br)c1 (centres undefined) | 1070 nM | 387 nM | > 83800 nM
COc1cc2nc(NC(=N)N)nc(C)c2cc1OC | 24.4 nM | 44.1 nM | > 10000 nM
Cc1c(C(=O)N2CCC3(CCN(C)C3)C2)cnn1-c1ncc2c(n1)-c1ccccc1SC2 (centres undefined) | 1560 nM | 603 nM | > 10000 nM
COc1ccc(-n2nc(C(C)(C)C)cc2NC(=O)CN(C(=O)c2ccc(C)c([N+](=O)[O-])c2)C(C)C)cc1 | 1550 nM | 1820 nM | 31100 nM
